Measured values published in ChEMBL document CHEMBL1201862, “PubChem BioAssay data set” (2004).
Active and inactive are the calls of the source.

Key:
Interleukin-8 [1] = molecular target: T1, Interleukin-8 (Homo sapiens, UniProt P10145); assay: Dose Response confirmation of uHTS small molecule hits for cystic fibrosis induced NFkb Inhibitors in a TNFa-induced IL8 counterscreen.; assay type: functional; conditions: read-out: IC50_Mean
Interleukin-8 [2] = molecular target: T1, Interleukin-8; assay: Dose Response confirmation of uHTS small molecule hits for cystic fibrosis induced NFkb Inhibitors in a PAF-induced IL8 counterscreen.; assay type: functional; conditions: read-out: IC50_Mean
Galanin receptor type 3 = Galanin receptor type 3 (Homo sapiens, UniProt O60755); assay: Fluorescence-based cell-based primary high throughput dose response assay to identify antagonists of the Galanin Receptor 3 (GalR3).; assay type: functional
Galanin receptor type 3, sequence (O60755 whole entry): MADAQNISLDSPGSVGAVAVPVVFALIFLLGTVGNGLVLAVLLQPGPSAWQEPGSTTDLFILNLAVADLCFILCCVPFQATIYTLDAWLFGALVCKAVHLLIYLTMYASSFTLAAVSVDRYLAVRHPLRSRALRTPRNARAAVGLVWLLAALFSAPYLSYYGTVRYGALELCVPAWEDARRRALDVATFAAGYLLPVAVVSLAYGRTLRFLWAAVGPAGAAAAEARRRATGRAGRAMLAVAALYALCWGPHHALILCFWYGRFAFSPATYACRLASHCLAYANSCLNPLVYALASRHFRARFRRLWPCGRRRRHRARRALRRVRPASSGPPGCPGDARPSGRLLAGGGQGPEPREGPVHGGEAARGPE

cells = assay type: functional, cell-based; conditions: HEK-CNG
Nonstructural protein 1 = Nonstructural protein 1 (Influenza A virus, UniProt Q194T2); assay type: functional, Influenza A virus (A/California/07/2009(H1N1))
Nonstructural protein 1, sequence (Q194T2 whole entry): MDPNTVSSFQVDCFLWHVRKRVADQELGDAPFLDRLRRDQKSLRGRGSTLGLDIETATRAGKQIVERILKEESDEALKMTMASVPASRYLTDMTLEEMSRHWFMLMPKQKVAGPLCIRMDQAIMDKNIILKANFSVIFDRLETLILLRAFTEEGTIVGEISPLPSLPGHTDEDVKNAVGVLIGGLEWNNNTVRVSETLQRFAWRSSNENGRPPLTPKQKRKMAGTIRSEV

[3] = bead-based luminescence quenchers, dual-tagged ARNT – biochemical, AlphaScreen, cherry-pick, artefact control for ARNT-TACC3 interaction inhibitor project, dose response (AID 651705); assay type: functional;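 note: AlphaScreen bead proximity signal that flags compounds interfering with the detection technology; potency reflects signal decrease which marks the compound as an assay artifact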
[4] = mouse fibroblast viability loss – cell-based, cherry-pick samples, set 2, cytotoxicity control for T. cruzi growth inhibitor project, dose response (AID 651817); assay type: functional; conditions: NIH3T3
[5] = intracellular Trypanosoma cruzi inhibitors in host cells – cell-based, plate reader, cherry-pick samples, set 3, dose response (AID 651818); assay type: functional;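 note: compounds incubated with infected cells for about four days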
[6] = inhibition of ARNT PAS-B/TACC3 complex formation – biochemical, AlphaScreen, cherry-picked samples, confirmation (AID 651703); assay type: functional, Homo sapiens;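 note: His-tagged ARNT PAS-B domain paired with GST-TACC3 E629A dimer coactivator fragment; potency of inhibitors that break up the complex and lower AlphaScreen signal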
[7] = molecular target: Adenosylmethionine-8-amino-7-oxononanoate aminotransferase (Mycobacterium tuberculosis, UniProt P9WQ81); assay: Mycobacterium tuberculosis BioA enzyme inhibitor Measured in Biochemical System Using Plate Reader - 2163-02_Inhibitor_Dose_CherryPick_Activity.; assay type: functional, Mycobacterium tuberculosis UT205
Adenosylmethionine-8-amino-7-oxononanoate aminotransferase, sequence (P9WQ81 whole entry): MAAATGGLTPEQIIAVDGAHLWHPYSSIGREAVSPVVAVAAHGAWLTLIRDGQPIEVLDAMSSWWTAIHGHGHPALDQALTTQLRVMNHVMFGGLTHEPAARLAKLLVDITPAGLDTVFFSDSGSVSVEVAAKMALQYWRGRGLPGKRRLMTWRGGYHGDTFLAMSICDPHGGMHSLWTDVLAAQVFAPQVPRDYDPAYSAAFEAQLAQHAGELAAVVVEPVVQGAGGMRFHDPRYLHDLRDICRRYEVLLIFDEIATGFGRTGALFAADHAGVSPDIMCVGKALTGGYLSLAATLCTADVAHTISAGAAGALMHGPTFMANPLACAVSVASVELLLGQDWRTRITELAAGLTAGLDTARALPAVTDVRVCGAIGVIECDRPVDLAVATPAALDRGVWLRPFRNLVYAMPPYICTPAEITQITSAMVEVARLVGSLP

[8] = molecular target: T2, ATP-dependent translocase ABCB1 (Homo sapiens, UniProt P08183); assay: inhibition of BCRP-mediated JC-1 efflux – Ig-MXP3 cells, flow cytometry, set 2, dose response (AID 504566); assay type: functional; conditions: read-out: EC50_MICROM_;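 note: flow cytometry median green fluorescence of retained JC-1 dye; potency of efflux pump inhibition measured as rising substrate retention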
T2 sequence (P08183 whole entry): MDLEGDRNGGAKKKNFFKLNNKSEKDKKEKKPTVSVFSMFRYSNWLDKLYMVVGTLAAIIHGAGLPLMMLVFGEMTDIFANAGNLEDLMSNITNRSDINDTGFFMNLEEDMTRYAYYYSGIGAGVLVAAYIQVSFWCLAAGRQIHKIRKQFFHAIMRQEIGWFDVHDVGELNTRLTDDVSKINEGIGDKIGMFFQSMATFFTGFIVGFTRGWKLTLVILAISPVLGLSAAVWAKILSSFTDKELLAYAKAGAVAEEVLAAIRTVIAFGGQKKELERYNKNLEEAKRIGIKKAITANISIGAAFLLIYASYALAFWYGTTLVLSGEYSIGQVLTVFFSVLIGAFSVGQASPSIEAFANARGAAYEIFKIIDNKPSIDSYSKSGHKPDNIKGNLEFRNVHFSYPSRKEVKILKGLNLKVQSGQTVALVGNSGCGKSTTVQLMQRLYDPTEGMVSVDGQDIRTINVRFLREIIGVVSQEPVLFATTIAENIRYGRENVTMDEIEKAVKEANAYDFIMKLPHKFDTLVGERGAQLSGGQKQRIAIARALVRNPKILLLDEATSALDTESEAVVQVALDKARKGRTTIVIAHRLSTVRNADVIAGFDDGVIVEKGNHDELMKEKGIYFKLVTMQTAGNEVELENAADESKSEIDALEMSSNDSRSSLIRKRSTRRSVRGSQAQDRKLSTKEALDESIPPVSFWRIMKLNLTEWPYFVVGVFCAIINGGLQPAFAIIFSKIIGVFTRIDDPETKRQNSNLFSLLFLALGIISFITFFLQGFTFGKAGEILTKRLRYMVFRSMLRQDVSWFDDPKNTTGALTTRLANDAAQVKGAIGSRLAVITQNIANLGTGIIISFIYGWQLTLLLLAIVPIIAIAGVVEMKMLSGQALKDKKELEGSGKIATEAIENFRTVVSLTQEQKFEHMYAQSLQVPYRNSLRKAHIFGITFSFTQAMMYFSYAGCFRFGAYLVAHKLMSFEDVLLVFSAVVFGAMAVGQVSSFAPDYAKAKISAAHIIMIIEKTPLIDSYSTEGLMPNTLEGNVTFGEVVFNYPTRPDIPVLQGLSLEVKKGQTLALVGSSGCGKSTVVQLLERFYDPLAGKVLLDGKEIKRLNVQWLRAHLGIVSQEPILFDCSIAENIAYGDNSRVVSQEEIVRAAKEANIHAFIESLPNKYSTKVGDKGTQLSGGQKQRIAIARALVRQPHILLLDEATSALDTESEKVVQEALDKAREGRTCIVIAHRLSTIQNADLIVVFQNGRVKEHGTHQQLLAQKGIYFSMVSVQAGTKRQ

[9] = molecular target: T2, ATP-dependent translocase ABCB1; assay: P-gp JC-1 efflux blockade concentration-response – Jurkat-DNR cells, flow cytometry, set 2, dose response (AID 504569); assay type: functional; conditions: read-out: EC50_MICROM_;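 note: potency of pump inhibitors that raise cellular JC-1 green fluorescence up to the nicardipine level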
HeLa = assay: viability loss in HeLa cells – cell-based, ATP luminescence, cherry-pick samples, cytotoxicity control, dose response (AID 687004); assay type: functional; conditions: Homo sapiens
[10] = blockers of HIV-1 ZM109 envelope-driven cell-cell fusion – HeLa effector, CEM target cells, luciferase, cherry-pick, dose response (AID 652058); assay type: functional, cell-based;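 note: luciferase signal from HIV-1 Env mediated cell-cell fusion of effector and target cells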
Protein Wnt-3a = Protein Wnt-3a (Mus musculus, UniProt P27467); assay: SAR analysis of small molecule antagonists of Gli-SUFU in a Wnt3a luminescent reporter assay.; assay type: functional
Protein Wnt-3a, sequence (P27467 whole entry): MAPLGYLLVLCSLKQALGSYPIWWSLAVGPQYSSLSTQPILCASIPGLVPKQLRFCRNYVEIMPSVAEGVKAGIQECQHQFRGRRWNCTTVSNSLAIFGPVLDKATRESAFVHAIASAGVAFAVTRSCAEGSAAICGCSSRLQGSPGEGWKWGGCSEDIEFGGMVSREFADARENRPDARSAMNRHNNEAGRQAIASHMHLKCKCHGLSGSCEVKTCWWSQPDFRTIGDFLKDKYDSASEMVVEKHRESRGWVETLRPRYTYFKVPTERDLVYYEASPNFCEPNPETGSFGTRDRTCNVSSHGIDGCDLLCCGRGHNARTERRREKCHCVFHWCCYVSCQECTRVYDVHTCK

[11] = HEK293T viability loss – cell-based, ATP luminescence, dry powder, Set6, cytotoxicity control, dose response (AID 743142); assay type: functional; conditions: HEK293
[12] = viability loss in A549 lung cancer cells – cell-based, CellTiter-Glo luminescence, dry powder, set 3, cytotoxicity control, dose response (AID 743146); assay type: functional

T1 sequence (P10145 whole entry): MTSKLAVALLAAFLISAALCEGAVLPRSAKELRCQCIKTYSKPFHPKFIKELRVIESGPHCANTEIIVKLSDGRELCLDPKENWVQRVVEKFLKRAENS

With `CC1C(c2ccccc2)OCCN1C(=S)Nc1ccc(S(=O)(=O)N2CCCCC2)cc1` (configuration not stated) the IC50 (Interleukin-8 [1]) was 4.48 µM (active) and the IC50 (Interleukin-8 [2]) was 3.69 µM (active).
In the case of `CC(=O)OCC1OC(n2c(S)c(C#N)c(-c3ccccc3)c(C#N)c2=O)C(OC(C)=O)C(OC(C)=O)C1OC(C)=O` (configuration not stated), the IC50 (Galanin receptor type 3) is reported as 0.503 µM (active) and the EC50 (cells) is reported as > 29.9 µM (inactive).
For `CCOc1cccc(/C=N/NC(=O)c2cccnc2)c1O`, the IC50 (Nonstructural protein 1) was 15.5 µM (active) and the AC50 [3] was 101 µM (active).
With `C[C@@H]1CN([C@H](C)CO)C(=O)Cc2cc(NS(=O)(=O)c3ccc(Cl)cc3)ccc2O[C@@H]1CN(C)S(=O)(=O)c1ccc(Cl)cc1` the AC50 [4] was 39 µM (inactive) and the AC50 [5] was 3.39 µM (active).
For `O=C(NC[C@H]1[C@H](c2ccccc2)[C@H](CO)N1Cc1ccccn1)C1CCC1`, the AC50 [6] was 129 µM (active).
In the case of `C[C@@H]1CN([C@@H](C)CO)C(=O)c2cc(C#Cc3cccnc3)cnc2O[C@H]1CN(C)S(C)(=O)=O`, the AC50 [7] is reported as 6.02 µM (active).
With `Cc1cccc(-c2cc3nc(-c4ccccc4)cc(N4CCN(C(=O)c5ccco5)CC4)n3n2)c1` the EC50 [8] was 3.22 µM (active) and the EC50 [9] was 3.77 µM (active).
With `COc1ccccc1C(=O)Nc1ccc2c(c1)OC[C@H](C)N(C(C)=O)C[C@H](C)[C@H](OC)CN(C)C2=O` the AC50 (HeLa) was 44.9 µM (active) and the AC50 [10] was 33.4 µM (active).
For `COc1cccc(C(=O)Nc2cc(N3CCCCC3)ncn2)c1`, the IC50 (Protein Wnt-3a) was > 21.8 µM (inactive).
With `COc1ccc(C(=O)NCCC(=O)N[C@@H]2CCCc3ccccc32)cc1` the AC50 [11] was 3.54 µM (active) and the AC50 [12] was > 52 µM (inactive).
